Experimental data from ChEMBL document CHEMBL1681728, “An automated, polymer-assisted strategy for the preparation of urea and thiourea derivatives of 15-membered azalides as potential antimalarial chemotherapeutics” (Bioorg Med Chem, 2011).

What was measured:
Type in all cases: functional, organism-based
Plasmodium falciparum [1] = test: Antimalarial activity against multidrug-resistant Plasmodium falciparum TM91C235 assessed as inhibition of [3H]hypoxanthine incorporation after 96 hrs by microtiter plate scintillation counting
Plasmodium falciparum [2] = test: Antimalarial activity against chloroquine-sensitive Plasmodium falciparum D6 assessed as inhibition of [3H]hypoxanthine incorporation after 96 hrs by microtiter plate scintillation counting
Plasmodium falciparum [3] = test: Antimalarial activity against chloroquine-,pyrimethamine-resistant Plasmodium falciparum W2 assessed as inhibition of [3H]hypoxanthine incorporation after 96 hrs by microtiter plate scintillation counting

| Structure (SMILES) | IC50 (Plasmodium falciparum [1]) | IC50 (Plasmodium falciparum [2]) | IC50 (Plasmodium falciparum [3]) |
| --- | --- | --- | --- |
| CC[C@H]1OC(=O)[C@H](C)[C@@H](O[C@H]2C[C@@](C)(OC)[C@@H](O)[C@H](C)O2)[C@H](C)[C@@H](O[C@@H]2O[C@H](C)C[C@H](N(C)C)[C@H]2O)[C@](C)(O)C[C@@H](C)CN(CCCNC(=O)Nc2ccc3c(c2)OCCCO3)[C@H](C)[C@@H](O)[C@]1(C)O | 60 nM | 28.1 nM | 40.8 nM |
| CC[C@H]1OC(=O)[C@H](C)[C@@H](O[C@H]2C[C@@](C)(OC)[C@@H](O)[C@H](C)O2)[C@H](C)[C@@H](O[C@@H]2O[C@H](C)C[C@H](N(C)C)[C@H]2O)[C@](C)(O)C[C@@H](C)CN(CCCNC(=S)Nc2c(F)cccc2F)[C@H](C)[C@@H](O)[C@]1(C)O | 188 nM | 509 nM | 86.3 nM |
| CC[C@H]1OC(=O)[C@H](C)[C@@H](O[C@H]2C[C@@](C)(OC)[C@@H](O)[C@H](C)O2)[C@H](C)[C@@H](O[C@@H]2O[C@H](C)C[C@H](N(C)C)[C@H]2O)[C@](C)(O)C[C@@H](C)CN(C)[C@H](C)[C@@H](O)[C@]1(C)O [AZITHROMYCIN] | 2060 nM | 1020 nM | 2240 nM |
| CC[C@H]1OC(=O)[C@H](C)[C@@H](O[C@H]2C[C@@](C)(OC)[C@@H](O)[C@H](C)O2)[C@H](C)[C@@H](O[C@@H]2O[C@H](C)C[C@H](N(C)C)[C@H]2O)[C@](C)(O)C[C@@H](C)CN(CCCNC(=S)NCCCN(CC)CC)[C@H](C)[C@@H](O)[C@]1(C)O | 12400 nM | 794 nM | 3130 nM |
| CC[C@H]1OC(=O)[C@H](C)[C@@H](O[C@H]2C[C@@](C)(OC)[C@@H](O)[C@H](C)O2)[C@H](C)[C@@H](O[C@@H]2O[C@H](C)C[C@H](N(C)C)[C@H]2O)[C@](C)(O)C[C@@H](C)CN(CCCNC(=S)Nc2ccc(Oc3ccccc3)nc2)[C@H](C)[C@@H](O)[C@]1(C)O | 133 nM | 215 nM | 109 nM |
| CC[C@H]1OC(=O)[C@H](C)[C@@H](O[C@H]2C[C@@](C)(OC)[C@@H](O)[C@H](C)O2)[C@H](C)[C@@H](O[C@@H]2O[C@H](C)C[C@H](N(C)C)[C@H]2O)[C@](C)(O)C[C@@H](C)CN(CCCNC(=S)Nc2cccc(-c3ccccc3)c2OC)[C@H](C)[C@@H](O)[C@]1(C)O | 55.3 nM | 58.1 nM | 114 nM |
| CC[C@H]1OC(=O)[C@H](C)[C@@H](O[C@H]2C[C@@](C)(OC)[C@@H](O)[C@H](C)O2)[C@H](C)[C@@H](O[C@@H]2O[C@H](C)C[C@H](N(C)C)[C@H]2O)[C@](C)(O)C[C@@H](C)CN(CCCNC(=O)NCCc2cccs2)[C@H](C)[C@@H](O)[C@]1(C)O | 405 nM | 932 nM | 1040 nM |
| CC[C@H]1OC(=O)[C@H](C)[C@@H](O[C@H]2C[C@@](C)(OC)[C@@H](O)[C@H](C)O2)[C@H](C)[C@@H](O[C@@H]2O[C@H](C)C[C@H](N(C)C)[C@H]2O)[C@](C)(O)C[C@@H](C)CN(CCCNC(=S)NC2CC2)[C@H](C)[C@@H](O)[C@]1(C)O | 972 nM | 3720 nM | 679 nM |
| CC[C@H]1OC(=O)[C@H](C)[C@@H](O[C@H]2C[C@@](C)(OC)[C@@H](O)[C@H](C)O2)[C@H](C)[C@@H](O[C@@H]2O[C@H](C)C[C@H](N(C)C)[C@H]2O)[C@](C)(O)C[C@@H](C)CN(CCCNC(=O)Nc2cccc(SC)c2)[C@H](C)[C@@H](O)[C@]1(C)O | 137 nM | 332 nM | 73.9 nM |
| CC[C@H]1OC(=O)[C@H](C)[C@@H](O[C@H]2C[C@@](C)(OC)[C@@H](O)[C@H](C)O2)[C@H](C)[C@@H](O[C@@H]2O[C@H](C)C[C@H](N(C)C)[C@H]2O)[C@](C)(O)C[C@@H](C)CN(CCCNC(=S)Nc2ccc(Cl)c(C(F)(F)F)c2)[C@H](C)[C@@H](O)[C@]1(C)O | 56.3 nM | 54.3 nM | 35 nM |
